From publication PMC12055592, “Post-symptomatic NLRP3 inhibition rescues cognitive impairment and mitigates amyloid and tau driven neurodegeneration” (Npj Dementia, 2025)

Legend:
5XFAD/Rubicon KO mice [1] = experiment: Spontaneous alternation (Y-maze) in 5XFAD/Rubicon KO mice; format: in vivo, mouse
Method: (§1) 5XFAD/Rubicon KO mice received vehicle (0.5% w/v methylcellulose/0.1% w/v Tween® 80 in water) or VEN-02XX (0.01, 1, or 20 mg/kg) every day by oral gastric gavage for 9 weeks.
Spontaneous alternation was measured in a standard Y-maze setup. Mice were acclimated to the testing room for 48 h. In each 5-min trial, percent spontaneous alternation was measured as […][32]. Any mouse with less than 5 arm entries during the 5 min trial was excluded from the analysis.

[2] = test system: NLRP3 inflammasome, IL-1β in iPSC-derived microglia; experiment: iPSC-derived microglia in vitro assay, secreted IL-1β; format: cell-based; conditions: for IC50: Microglia, geometric mean, n = 5
Method: (§2) iPSC-derived microglia (BX-0900, BrainXell, Madison, WI) were thawed and recovered as per the supplier’s instructions. Briefly, viable cells were counted post-thaw using Trypan Blue, 0.4% (Thermo Fisher Scientific) and 25,000 cells were seeded on poly-d-lysine coated 96-well plates in DMEM-F/12 medium (Thermo Fisher Scientific) supplemented with 1X B-27 supplement (Thermo Fisher Scientific), 1X N-2 supplement (Thermo Fisher Scientific), 1X Non-essential amino acids (Thermo Fisher Scientific), 1X Chemically defined lipid mix (Thermo Fisher Scientific), 1 mM GlutaMax (Thermo Fisher Scientific), 0.2 mM Ascorbic Acid (Millipore), 100 ng/mL IL-34 (PeproTech, Cranbury, NJ), 2 ng/mL TGF-β1 (PeproTech) and 20 ng/mL M-CSF (PeproTech). Fresh media was added 3 days after seeding, half of which was replenished with fresh media 6 days following seeding. The assay was performed 7 days after cells were seeded in 96-well plates. Two assay protocol variations were performed: cells were either pre-treated with VEN-02XX to block NLRP3 inflammasome formation and then primed with LPS (Fig. 1, D. Compound added before LPS priming) or were primed with LPS and then treated with VEN-02XX (Fig. 1, D. Compound added after LPS priming). For compound treatment, cells were treated with VEN-02XX for 1 h (top concentration 100 µM; 3-fold titration) to block NLRP3 inflammasome formation. For LPS priming, cells were primed with 100 ng/mL LPS (E.coli O26:B6, Millipore) for 4 h. At the end of either protocol, cells were stimulated with 10 uM Nigericin (Millipore) for 1 h, after which conditioned media was collected for analysis of secreted IL-1β, IL-18 and TNFα in an electrochemiluminescence immunoassay (Mesoscale Discovery).

5XFAD/Rubicon KO mice [3] = experiment: Sucrose preference test in 5XFAD/Rubicon KO mice; format: in vivo, mouse
Method: as §1
Basal preference to sucrose was first assessed on all enrolled mice. Individually housed mice were acclimated to the testing room for 48 h and to the two-bottle setup, where both bottles contained water, for 3 days. A 2% sucrose solution replaced the water in one bottle, and water consumption was measured for 4 consecutive days, while rotating the position of the sucrose-containing bottle. At the end of the testing period, both bottles were measured, and sucrose preference was calculated by dividing the intake from the sucrose bottle by the intake from both bottles, expressed as the percentage of sucrose preference. Preference to sucrose was re-assessed at 6- and 9-weeks following dosing with VEN-02XX. The test was performed as described above, with one bottle switched for 3% sucrose water. As before, bottles were rotated daily to reduce bias and leakage concerns, and the consumption was monitored for 4 days.

[4] = test system: NLRP3 inflammasome, IL-1β release in human PBMCs; experiment: PBMC in vitro assay (LPS priming, nigericin, secreted IL-1β); format: cell-based
Method: Cryopreserved human PBMCs (iXCells Biotechnologies, San Diego, CA) were rapidly thawed and incubated overnight at 37 °C with 5% CO2 in Complete Media: RPMI 1640 medium (ATCC modification, Thermo Fisher Scientific) supplemented with 10% Fetal bovine serum (FBS, Thermo Fisher Scientific) and 1% Penicillin-Streptomycin (Thermo Fisher Scientific). The next day, cells were centrifuged (300 × g, 5 min), resuspended in Assay Media (Complete Media without FBS) and plated at 33,333 cells/well in a 96-well cell culture plate. PBMCs were then primed with 100 ng/ml LPS (E. coli O26:B6) for 4 h. Following LPS priming, PBMCs were incubated with VEN-02XX pre-diluted in assay media with 0.8% DMSO, for 30 min (top concentration 100 µM; 4-fold titration). Following drug incubation, PBMCs were stimulated with 10 µM Nigericin (Millipore-Sigma, Burlington, MA) for an additional 60 min, after which conditioned media was collected for analysis of secreted IL-1β in an electrochemiluminescence immunoassay (Mesoscale Discovery).

[5] = test system: NLRP3 inflammasome, IL-18 in iPSC-derived microglia; experiment: iPSC-derived microglia in vitro assay, secreted IL-18; format: cell-based; conditions: geometric mean, n = 5
Method: as §2, with “For LPS priming, cells were primed with 100 ng/mL LPS (E.coli O26:B6, Millipore) for 4 h. At the end of either protocol, cells were stimulated with 10 uM Nigericin (Millipore) for 1 h, after which conditioned media was collected for analysis of secreted IL-1β, IL-18 and TNFα in an electrochemiluminescence immunoassay (Mesoscale Discovery).” left out

AIM2 = AIM2 in vitro selectivity assay (THP1-KO-NLRP3 cells, Poly(dA:dT), IL-1β); format: cell-based; conditions: n = 2; top concentration 50 µM
Method: THP1-KO-NLRP3 cells (Invivogen, San Diego, CA), resuspended in RPMI 1640 (Thermo Fisher Scientific) supplemented with 25 mM HEPES (Thermo Fisher Scientific), 10% FBS (Thermo Fisher Scientific) and 1% Penicillin-Streptomycin (Thermo Fisher Scientific), were seeded at 75,000 cells/well in a 96-well cell culture plate and treated with 50 ng/ml Phorbol 12-myristate 13-acetate (PMA, Millipore) for 24 h at 37 °C with 5% CO2. The next day, the media was replaced with fresh media containing 2.2% FBS, and cells were pretreated for 60 min with VEN-02XX (top concentration 50 µM; 5-fold titration) before DNA transfection. Lipofectamine 2000 (Thermo Fisher Scientific), for a final concentration of 2 µg/ml, and Poly(dA:dT) (Invivogen), for a final concentration of 1 µg/ml, were mixed together in OptiMEM (Thermo Fisher Scientific) 5 min before their addition to the cells. After a 24-h incubation at 37 °C with 5% CO2, supernatants were collected and IL-1β levels determined in an electrochemiluminescence immunoassay (Mesoscale Discovery).

[6] = compound added after LPS priming
[7] = compound added before LPS priming

## CC(C)(O)CNc1nnc(-c2ccc(Cl)cc2C(F)(F)F)c2ccncc12 [VEN-02XX]
5XFAD/Rubicon KO mice [1]; 9 weeks, 0.01, 1, 20 mg/kg PO QD vs vehicle
  spontaneous alternation (Y-maze): striking dose-dependent improvement
5XFAD/Rubicon KO mice [1]; 9 weeks, 20 mg/kg PO QD
  spontaneous alternation (Y-maze), learning and memory: restoration of learning and memory to near wild type control levels for most animals
[2]; [6]
  IC50: 250 nM
[2]; [7]
  IC50: 300 nM
[2]; in words
  potency of NLRP3 inhibition in iPSC-derived microglia: sub-micromolar potency
5XFAD/Rubicon KO mice [3]; 6 and 9 weeks, sucrose preference test
  water consumption: no changes in water consumption
5XFAD/Rubicon KO mice [3]; 6 weeks post-dose initiation, 20 mg/kg PO QD
  sucrose preference (anhedonia): significant improvement
5XFAD/Rubicon KO mice [3]; 6 weeks post-dose initiation, lower doses (0.01, 1 mg/kg) PO QD
  sucrose preference (anhedonia): trending reversal in the pre-dosing anhedonia
5XFAD/Rubicon KO mice [3]; 9 weeks, 1 mg/kg and 20 mg/kg PO QD, dose-dependent
  sucrose preference (anhedonia): significant improvements
[4]; Homo sapiens, PBMC, geometric mean, n = 3, read-out: IL-1β inhibition (PBMCs) IC50
  IC50: 350 nM
[4]; in words
  potency of NLRP3 inhibition in PBMC: sub-micromolar potency
[5]; [6]
  IC50: 220 nM
[5]; [7]
  IC50: 280 nM
AIM2
  block of IL-1β release downstream of AIM2: inability to block IL-1β release
